target: HDAC1 (Homo sapiens (Human), UniProt Q13547); assay: HDAC activity inhibition assay, HDAC1; assay type: biochemical; conditions: Table 1; 2 hours pre-incubation
Procedure: (§1) The HDAC activity inhibition assay was performed as follows to determine the ability of a test compound to inhibit HDAC enzymatic activity. […] Following pre-incubation, Fluor-de-Lys™ substrate (Enzo Life Sciences, Plymouth Meeting, Pa., BML-KI104-0050) was added to a final concentration of 10 μM and plates were further incubated for 30 minutes at room temperature. […] IC50 values were calculated by using a sigmoidal dose-response (variable slope) equation in GraphPad Prism® 5 for Windows (GraphPad Software, La Jolla, Calif.).

Chain of HDAC1 (Q13547 whole entry): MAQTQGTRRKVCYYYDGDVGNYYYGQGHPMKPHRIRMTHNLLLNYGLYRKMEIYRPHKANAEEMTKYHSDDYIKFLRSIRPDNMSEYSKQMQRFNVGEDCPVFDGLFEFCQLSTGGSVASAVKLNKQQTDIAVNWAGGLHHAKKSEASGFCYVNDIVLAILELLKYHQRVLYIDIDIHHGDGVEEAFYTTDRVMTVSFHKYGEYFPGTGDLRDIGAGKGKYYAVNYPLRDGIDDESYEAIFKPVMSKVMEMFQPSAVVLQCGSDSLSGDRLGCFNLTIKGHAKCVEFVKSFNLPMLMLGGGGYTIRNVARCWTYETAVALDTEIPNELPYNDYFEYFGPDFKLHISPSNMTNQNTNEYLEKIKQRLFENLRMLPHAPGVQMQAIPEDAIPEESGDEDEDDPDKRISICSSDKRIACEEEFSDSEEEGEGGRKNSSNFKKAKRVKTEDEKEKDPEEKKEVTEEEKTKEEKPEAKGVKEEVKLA

| SMILES | IC50 [µM] |
| --- | --- |
| Nc1ccccc1NC(=O)c1ccc(C=C2CCN(C(=O)OCc3ccccc3)CC2)cc1 [F1] | < 1 |
| Nc1ccccc1NC(=O)c1ccc(C=C2CCN(Cc3cccnc3)CC2)cc1 [F2] | < 1 |
| Nc1ccccc1NC(=O)c1ccc(C=C2CN(Cc3ccc4cc[nH]c4c3)C2)cc1 [F3] | < 1 |
| Nc1ccccc1NC(=O)c1ccc(CC2CN(Cc3ccc4cc[nH]c4c3)C2)cc1 [F4] | < 1 |
| Nc1ccccc1NC(=O)c1ccc(C=C2CCN(Cc3cccnc3)CC2)c(Cl)c1 [F7] | < 1 |

same assay, conditions: Table 4

| SMILES | IC50 [µM] |
| --- | --- |
| Nc1ccccc1NC(=O)c1ccc(C=C2CCN(Cc3cccnc3)CC2)c(Cl)c1 [F7] | < 1 |
| CN1C2CCC1CC(=Cc1ccc(C(=O)Nc3ccccc3N)cc1Cl)C2 [F8] | < 1 |
| Nc1ccccc1NC(=O)c1ccc(C=C2COC2)cc1F [F9] | < 1 |
| Nc1ccccc1NC(=O)c1ccc(C=C2COC2)c(Cl)c1 [F11] | < 1 |
| Cc1cccc(CN2CC(=Cc3ccc(C(=O)Nc4ccccc4N)cc3)C2)n1 [F16] | < 1 |
| Nc1ccccc1NC(=O)c1ccc(C=C2CN(Cc3ccccc3)C2)cc1 [F17] | < 1 |
| Nc1ccccc1NC(=O)c1ccc(C=C2CN(Cc3cccnc3)C2)cc1 [F18] | < 1 |
| CC(C)(O)CN1CC(=Cc2ccc(C(=O)Nc3ccccc3N)cc2)C1 [F19] | < 1 |
| Nc1cc(F)ccc1NC(=O)c1ccc(C=C2CN(CC3CC3)C2)cc1 [F20] | 1 to 5 |

target: HDAC2 (Homo sapiens (Human), UniProt Q92769); assay: HDAC activity inhibition assay, HDAC2; assay type: biochemical; conditions: Table 1; 2 hours pre-incubation
Sequence (Q92769 whole entry): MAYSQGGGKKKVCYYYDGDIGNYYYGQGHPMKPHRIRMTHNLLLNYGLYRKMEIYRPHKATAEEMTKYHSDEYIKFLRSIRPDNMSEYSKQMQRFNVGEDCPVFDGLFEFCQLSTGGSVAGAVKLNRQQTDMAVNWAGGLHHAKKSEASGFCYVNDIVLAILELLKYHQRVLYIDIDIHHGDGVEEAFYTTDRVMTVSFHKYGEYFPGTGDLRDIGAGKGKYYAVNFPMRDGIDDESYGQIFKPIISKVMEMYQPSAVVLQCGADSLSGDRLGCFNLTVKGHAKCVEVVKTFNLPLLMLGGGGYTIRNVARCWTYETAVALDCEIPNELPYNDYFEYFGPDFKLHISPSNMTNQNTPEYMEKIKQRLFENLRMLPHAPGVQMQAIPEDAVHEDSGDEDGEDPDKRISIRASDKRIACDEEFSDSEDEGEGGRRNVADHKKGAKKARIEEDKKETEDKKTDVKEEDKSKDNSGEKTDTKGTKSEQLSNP
Procedure: as §1

| SMILES | IC50 [µM] |
| --- | --- |
| Nc1ccccc1NC(=O)c1ccc(C=C2CCN(C(=O)OCc3ccccc3)CC2)cc1 [F1] | 1 to 5 |
| Nc1ccccc1NC(=O)c1ccc(C=C2CCN(Cc3cccnc3)CC2)cc1 [F2] | < 1 |
| Nc1ccccc1NC(=O)c1ccc(C=C2CN(Cc3ccc4cc[nH]c4c3)C2)cc1 [F3] | < 1 |
| Nc1ccccc1NC(=O)c1ccc(C=C2CCN(Cc3cccnc3)CC2)c(Cl)c1 [F7] | < 1 |

same assay, conditions: Table 4

| SMILES | IC50 [µM] |
| --- | --- |
| Nc1ccccc1NC(=O)c1ccc(C=C2CCN(Cc3cccnc3)CC2)c(Cl)c1 [F7] | < 1 |
| CN1C2CCC1CC(=Cc1ccc(C(=O)Nc3ccccc3N)cc1Cl)C2 [F8] | < 1 |
| Cc1cccc(CN2CC(=Cc3ccc(C(=O)Nc4ccccc4N)cc3)C2)n1 [F16] | < 1 |
| Nc1ccccc1NC(=O)c1ccc(C=C2CN(Cc3ccccc3)C2)cc1 [F17] | < 1 |
| Nc1ccccc1NC(=O)c1ccc(C=C2CN(Cc3cccnc3)C2)cc1 [F18] | < 1 |
| CC(C)(O)CN1CC(=Cc2ccc(C(=O)Nc3ccccc3N)cc2)C1 [F19] | 1 to 5 |
| Nc1cc(F)ccc1NC(=O)c1ccc(C=C2CN(CC3CC3)C2)cc1 [F20] | 1 to 5 |

target: HDAC3/NcoR2 (Homo sapiens (Human), UniProt O15379); assay: HDAC activity inhibition assay, HDAC3/NcoR2; assay type: biochemical; conditions: Table 1; 2 hours pre-incubation
Sequence (O15379 whole entry): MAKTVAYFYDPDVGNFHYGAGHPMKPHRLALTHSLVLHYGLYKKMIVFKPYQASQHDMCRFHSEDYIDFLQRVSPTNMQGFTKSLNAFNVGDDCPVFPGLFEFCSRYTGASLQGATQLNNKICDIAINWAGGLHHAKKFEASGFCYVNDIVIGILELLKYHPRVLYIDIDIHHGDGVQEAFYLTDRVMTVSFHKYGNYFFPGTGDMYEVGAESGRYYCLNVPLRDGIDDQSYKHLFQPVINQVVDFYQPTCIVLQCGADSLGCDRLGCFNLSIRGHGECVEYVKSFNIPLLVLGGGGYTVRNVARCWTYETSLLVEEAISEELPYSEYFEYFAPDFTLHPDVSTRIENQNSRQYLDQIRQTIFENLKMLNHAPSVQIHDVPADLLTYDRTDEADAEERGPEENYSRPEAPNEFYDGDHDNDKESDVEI
Sequence (Q9Y618 395-489 partner): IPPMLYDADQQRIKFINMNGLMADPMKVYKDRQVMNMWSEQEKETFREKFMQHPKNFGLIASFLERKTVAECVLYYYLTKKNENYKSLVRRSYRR
Procedure: as §1

| SMILES | IC50 [µM] |
| --- | --- |
| Nc1ccccc1NC(=O)c1ccc(C=C2CCN(C(=O)OCc3ccccc3)CC2)cc1 [F1] | < 1 |
| Nc1ccccc1NC(=O)c1ccc(C=C2CCN(Cc3cccnc3)CC2)cc1 [F2] | < 1 |
| Nc1ccccc1NC(=O)c1ccc(C=C2CN(Cc3ccc4cc[nH]c4c3)C2)cc1 [F3] | < 1 |
| Nc1ccccc1NC(=O)c1ccc(CC2CN(Cc3ccc4cc[nH]c4c3)C2)cc1 [F4] | < 1 |
| Nc1ccccc1NC(=O)c1ccc(C=C2CCN(Cc3cccnc3)CC2)c(Cl)c1 [F7] | < 1 |

same assay, conditions: Table 4

| SMILES | IC50 [µM] |
| --- | --- |
| Nc1ccccc1NC(=O)c1ccc(C=C2CCN(Cc3cccnc3)CC2)c(Cl)c1 [F7] | < 1 |
| CN1C2CCC1CC(=Cc1ccc(C(=O)Nc3ccccc3N)cc1Cl)C2 [F8] | < 1 |
| Nc1ccccc1NC(=O)c1ccc(C=C2COC2)cc1F [F9] | < 1 |
| Nc1ccccc1NC(=O)c1ccc(C=C2COC2)c(Cl)c1 [F11] | < 1 |
| Cc1cccc(CN2CC(=Cc3ccc(C(=O)Nc4ccccc4N)cc3)C2)n1 [F16] | < 1 |
| Nc1ccccc1NC(=O)c1ccc(C=C2CN(Cc3ccccc3)C2)cc1 [F17] | < 1 |
| Nc1ccccc1NC(=O)c1ccc(C=C2CN(Cc3cccnc3)C2)cc1 [F18] | < 1 |
| CC(C)(O)CN1CC(=Cc2ccc(C(=O)Nc3ccccc3N)cc2)C1 [F19] | < 1 |
| Nc1cc(F)ccc1NC(=O)c1ccc(C=C2CN(CC3CC3)C2)cc1 [F20] | < 1 |

tested on: not listed separately; assay: Acid stability determination; assay type: physicochemical; conditions: 100 μM in 0.01 M HCl, 50° C.
Procedure: A 100 μM solution of test compound was prepared by dilution of a 10 mM DMSO stock solution in a 0.01 M solution of HCl in deionized water. Immediately after mixing, an aliquot (100 μL) was sampled and analyzed by HPLC/UV. The area under the compound peak was determined and used as the time zero reference point. The remainder of the acid sample was incubated at 50° C. and samples were taken after 2, 4, and 24 hours of incubation. On a few occasions, samples were taken at 30 rather than 24 hours. These were analyzed by the same HPLC/UV method and the area of the peak corresponding to the test compound was measured. Percent remaining at a given time point was then calculated as the ratio of the area under the peak after incubation to that at time zero times 100. In those cases where a 30 hour time point was recorded, the percent remaining at 24 hours was obtained by interpolation of the percent remaining versus time curve assuming a unimolecular process, i.e. a monoexponential decay. Percent remaining after 24 hours incubation are presented in Tables 2 and 4 below, where A corresponds to more than 60%, B is between 40 and 60%, C covers 20 to 40% and D means less than 20%.

| SMILES | acid stability (percent remaining after 24 hours incubation) |
| --- | --- |
| CN(CCCn1cc(/C=C/C(=O)Nc2ccccc2N)cn1)c1ccccc1 [D12] | A (A corresponds to more than 60%) |
| Nc1ccccc1NC(=O)c1ccc(C=C2CCN(C(=O)OCc3ccccc3)CC2)cc1 [F1] | B (B is between 40 and 60%) |
| Nc1ccccc1NC(=O)c1ccc(C=C2CCN(Cc3cccnc3)CC2)cc1 [F2] | B (B is between 40 and 60%) |
| Nc1ccccc1NC(=O)c1ccc(C=C2CN(Cc3ccc4cc[nH]c4c3)C2)cc1 [F3] | B (B is between 40 and 60%) |
| Nc1ccccc1NC(=O)c1ccc(CC2CN(Cc3ccc4cc[nH]c4c3)C2)cc1 [F4] | B (B is between 40 and 60%) |

tested on: Frataxin (FXN) mRNA; assay: Effect of HDAC inhibitors on frataxin (FXN) mRNA expression in Friedreich's ataxia patient primary lymphocytes; assay type: cell-based, human; conditions: Homo sapiens, Lymphocyte; Friedreich's ataxia patient primary lymphocytes, 48 hours; read-out: FXN 2x (concentration required for a 2-fold increase in FXN mRNA)
Procedure: Blood is collected from Friedreich's ataxia patient donors into tubes containing the anti-coagulant EDTA. Primary lymphocytes are isolated using Lymphocyte Separation Medium (MP Biomedicals, Solon, Ohio) following the manufacturer's instructions and including a few modifications made by Repligen. After a final wash in Phosphate Buffered Saline (PBS), the cells are distributed into a 6-well cell culture plate in cell growth medium. The test HDAC inhibitor compound is added to cells in a dose escalating manner (usually concentrations range from 1 to 10 μM) and 0.1% DMSO is added to one well of cells as a no treatment control. Cells are incubated for 48 hours at 37° C. in a CO2 incubator; cell counts are taken using a Countess automated cell counter (Invitrogen, Carlsbad, Calif.). Equivalent numbers of cells for all treatment conditions are pelleted by centrifugation and resuspended in cell lysis buffer. Total RNA is isolated from approximately 1×10^6 primary lymphocytes using a RNeasy Mini Kit (Qiagen, Valencia, Calif.), following the manufacturer's instructions and including an optional on-column DNAse digestion step. The isolation is performed either manually or using the QIAcube (Qiagen, Valencia, Calif.), an instrument that automates much of the isolation procedure. The RNA yield and concentration is determined using a Nanodrop spectrophotometer (Thermo Fisher Scientific, Waltham, Mass.) and depending on the RNA concentration, one of two protocols is used to measure frataxin (FXN) transcript levels. For samples containing at least 15 ng/μL RNA a TaqMan® Probe-based (Applied Biosystems, Carlsbad, Calif.) qRT-PCR method is used, while for samples containing less than 15 ng/μL RNA a SYBR Green qRT-PCR method is used. In the TaqMan® Probe-based method specific primer/probe pairs for FXN and GAPDH are multiplexed in each reaction. In the SYBR Green method FXN and GAPDH are amplified in separate reactions. In both methods each RNA sample is analyzed in triplicate (preferably) or duplicate (minimally) using a one-step qRT-PCR master mix that contains all the components necessary for cDNA synthesis and PCR amplification in a single, continuous reaction. After cycling is complete, MxPro Software (Agilent Technologies, Santa Clara, Calif.) is used to analyze the collected data and determine the relative amount of FXN mRNA compared to a control sample. An adaptive baseline method is used for baseline correction whereby an algorithm automatically selects the appropriate baseline cycles for each well and each dye. An amplification-based threshold is set and the corresponding threshold cycle, or Ct, is obtained for calculating target concentration. The Ct values for each target gene (FXN and GAPDH) for each replicate series are averaged. The amount of FXN (or GAPDH) in the sample is determined as the relative quantity to the calibrator where the calibrator sample is assigned an arbitrary quantity of 1. The following equation is used: Relative quantity to the calibrator=2^−ΔCt where ΔCt=(Ct_gene)unknown−(Ct_gene)calibrator, gene is either FXN or GAPDH, calibrator is a DMSO control sample, and unknown is a HDACi treated sample. The relative quantity of FXN is normalized to cell number and RNA input. Data is reported in Tables 2 and 4 below, where the concentration required for a 2-fold increase in FXN mRNA is reported as A if less than 5 μM, B if between 5 and 10 μM, C if greater than 10 μM.

| SMILES | EC (2-fold FXN mRNA) [µM] |
| --- | --- |
| Nc1ccccc1NC(=O)c1ccc(C=C2CCN(Cc3cccnc3)CC2)cc1 [F2] | < 5 |
| Nc1ccccc1NC(=O)c1ccc(C=C2CN(Cc3ccc4cc[nH]c4c3)C2)cc1 [F3] | < 5 |
| Nc1ccccc1NC(=O)c1ccc(CC2CN(Cc3ccc4cc[nH]c4c3)C2)cc1 [F4] | < 5 |

tested on: not listed separately; assay: Brain penetration studies; conditions: Table 4; mice; Cmax(brain)/Cmax(plasma)
Procedure: Test compounds were prepared at either 0.5 mg/ml or 5 mg/ml in 30% hydroxypropyl-β-cyclodextrin, 100 mM sodium acetate pH 5.5, 5% DMSO. C57/BL6/J mice were dosed s.c. at 5 mg/kg or 50 mg/kg, or i.v. at 5 mg/kg. Animals were euthanized at pre-dose, 5, 15, 30 min, 1, 2 and 4 hours post-dose and plasma and brain obtained. Three animals per dose per time points were used. The levels of compound in the plasma and brain were determined by standard LC/MS/MS methods. Brain/plasma ratio (BPR) was calculated as the ratio of the Cmax(brain)/Cmax(plasma).

| SMILES | BPR |
| --- | --- |
| CN1C2CCC1CC(=Cc1ccc(C(=O)Nc3ccccc3N)cc1Cl)C2 [F8] | C (C is 0.2 to 0.5) |
| Nc1ccccc1NC(=O)c1ccc(C=C2CN(CC3CC3)C2)c(Cl)c1 [F10] | A (A is greater than 1) |
| Nc1ccccc1NC(=O)c1ccc(C=C2COC2)c(Cl)c1 [F11] | A (A is greater than 1) |

tested on: Human Hepatocytes; assay: Compound stability in hepatocytes; conditions: 5 μM
Procedure: To assess the stability and metabolism of RGFP compounds in hepatocytes. This assay was designed to evaluate the metabolism of RGFP compounds, following their incubation with human, monkey, dog and rat hepatocytes by monitoring either parent drug disappearance or metabolite appearance using HPLC.
Procedure: • Turn on the water-bath heater to 37° C. • Take out the KHB buffer and make sure it is at room temp before use • Prepare 2.5 mM concentration of RGFP compound in DMSO stock • Add 10 μL of above DMSO stock to 2490 μL KHB buffer; final concentration of RGFP compound will be 10 μM • Pre-warm 45 ml InVitro HT Medium to 37° C. in a sterile 50 ml conical tube • Add 1.0 mL Torpedo Antibiotic Mix per 45 mL InVitro HT medium • Transfer 13 mL of warm HT medium with Antibiotic Mix into a 15 mL conical tube. • Carefully remove the hepatocyte vials from liquid nitrogen (liquid phase). • Immediately immerse the vial into a 37° C. water bath. Shake gently until the ice melts entirely. […] Loosen the cell pellet by gently swirling the centrifuge tube • Transfer 100 μL of above solution to a different tube and add 900 μL of KHB buffer to count the cells • Determine the total cell count and the number of viable cells using the Trypan Blue exclusion method • Once you obtain the cell count, multiply the number by 10 (attributing to the dilution factor) • Now add required volume of KHB buffer to the tube containing hepatocytes such that the final count will be 2 million cells/mL • Dispense 50 μL of 2 million cells/ml to a 96 well plate and then add 50 μl of DMSO stock to respective wells (such that, the concentration of RGFP compounds is 5 μM and number of cells are 100000 in each well) • Place the plates on a shaker in a 37° C. incubator with 5% CO2 • Separate plates for each time point are advisable (Time points: 0 h, 1 h, 2 h, and 6 h) • After each time point, add 100 μL of quenching solution. • Quenching solution is an acetonitrile solution containing RGFP531 (10 μM) internal standard, 0.1% formic acid and phenylglyoxol (400 μM). The formic acid and phenylglyoxal is used for the identification and quantification of OPD as mentioned above. • Pipette up and down a few times to ensure a complete stop of reaction • Transfer all the solution into a 1.5 ml tube, vortex thoroughly, and centrifuge at 14000 RPM at 4° C. for 5 minutes to precipitate cell debris
Transfer the 150 μL of supernatant to vials for analysis using HPLC

| SMILES | % left 6 h Hum |
| --- | --- |
| Nc1ccccc1NC(=O)c1ccc(C=C2CCN(Cc3cccnc3)CC2)c(Cl)c1 [F7] | C (30%>C>10%) |
| Nc1ccccc1NC(=O)c1ccc(C=C2COC2)cc1F [F9] | IA (IA<10%) |
| Nc1ccccc1NC(=O)c1ccc(C=C2CN(CC3CC3)C2)c(Cl)c1 [F10] | B (50%>B>30%) |
| Nc1ccccc1NC(=O)c1ccc(C=C2COC2)c(Cl)c1 [F11] | C (30%>C>10%) |
| Cc1cccc(CN2CC(=Cc3ccc(C(=O)Nc4ccccc4N)cc3)C2)n1 [F16] | C (30%>C>10%) |
| Nc1ccccc1NC(=O)c1ccc(C=C2CN(Cc3ccccc3)C2)cc1 [F17] | C (30%>C>10%) |
| Nc1ccccc1NC(=O)c1ccc(C=C2CN(Cc3cccnc3)C2)cc1 [F18] | C (30%>C>10%) |
| CC(C)(O)CN1CC(=Cc2ccc(C(=O)Nc3ccccc3N)cc2)C1 [F19] | A (50%<A) |
| Nc1cc(F)ccc1NC(=O)c1ccc(C=C2CN(CC3CC3)C2)cc1 [F20] | A (50%<A) |

Source: US9908899B2 (BIOMARIN PHARMACEUTICAL INC., priority 2011, dated 2018)
